Earlier results as cited in patent US20150258078A1 (priority 2014, published 2015).
Like-named read-outs stand apart in the source and are kept apart here.

How the values were obtained:
[1] = tested on: male inbred BHE (IN-BHE) rats; settings: after the injection of 300 µg
[2] = tested on: type 2 diabetic and nondiabetic subjects; settings: 61.4 micromol/day for 28 days; for VLDL, mean of absolute differences between 0 and 28 day treatment +/- S.E.M. / triacylglycerol, mean of absolute differences between 0 and 28 day treatment +/- S.E.M.: plasma
[3] = tested on: patients with elevated cholesterol and triglycerides; settings: multiple clinical trials; daily intakes 600 to 1200 mg/day

| Compound | plasma levels of lactate and pyruvate [1] | VLDL, mean of absolute differences between 0 and 28 day treatment +/- S.E.M. ([2]; diabetic group) | triacylglycerol, mean of absolute differences between 0 and 28 day treatment +/- S.E.M. ([2]; diabetic group) | cholesterol, glucose and insulin ([2]; diabetic or nondiabetic subjects) | VLDL, mean of absolute differences between 0 and 28 day treatment +/- S.E.M. ([2]; nondiabetic group) | triacylglycerol, mean of absolute differences between 0 and 28 day treatment +/- S.E.M. ([2]; nondiabetic group) | HDL cholesterol increased [3] [%] | total cholesterol decreased [3] [%] | triglycerides decreased [3] [%] |
| --- | --- | --- | --- | --- | --- | --- | --- | --- | --- |
| O=C(O)CCCC[C@@H]1SC[C@@H]2NC(=O)N[C@@H]21 [Biotin] | fell | −0.11+/−0.04 | −0.55+/−0.2 | no significant effects | −0.18+/−0.07 | −0.92+/−0.36 | – | – | – |
| Pantethine | – | – | – | – | – | – | 9 | 12 | 18 |
